# Test system: 192522-019-R-J2-PDC complex tumor spheroid viability
# Experiment: Anticancer human tumor 192522-019-R-J2-PDC patient-derived colon adenocarcinoma cell line growth inhibition [POLQ]
# Details: for IC50: curve of first compound; for viability, T/C: stronger effect = lower value
# How it was run: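 PDC + HUVEC + MSC complex spheroids; POLQ inhibitors ± partner drugs; top conc. at/near clinical Cmax, else 10 microM (SN-38 1 microM), half-log dilutions; 37 degrees C, 5% CO2.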
# [1] = second compound 0.0316 µM, first compound 0.0316 µM
# [2] = second compound 0.0316 µM, first compound 0.1 µM
# [3] = second compound 0.0316 µM, first compound 0.316 µM
# [4] = second compound 0.0316 µM, first compound 1 µM
# [5] = second compound 0.0316 µM, first compound 3.16 µM
# [6] = second compound 0.0316 µM, first compound 10 µM
# [7] = second compound 0.1 µM, first compound 0.0316 µM
# [8] = second compound 0.1 µM, first compound 0.1 µM
# [9] = second compound 0.1 µM, first compound 0.316 µM
# [10] = second compound 0.1 µM, first compound 1 µM
# [11] = second compound 0.1 µM, first compound 3.16 µM
# [12] = second compound 0.1 µM, first compound 10 µM
# [13] = second compound 0.316 µM, first compound 0.0316 µM
# [14] = second compound 0.316 µM, first compound 0.1 µM
# [15] = second compound 0.316 µM, first compound 0.316 µM
# [16] = second compound 0.316 µM, first compound 1 µM
# [17] = second compound 0.316 µM, first compound 3.16 µM
# [18] = second compound 0.316 µM, first compound 10 µM
# [19] = second compound 1 µM, first compound 0.0316 µM
# [20] = second compound 1 µM, first compound 0.1 µM
# [21] = second compound 1 µM, first compound 0.316 µM
# [22] = second compound 1 µM, first compound 1 µM
# [23] = second compound 1 µM, first compound 3.16 µM
# [24] = second compound 1 µM, first compound 10 µM
# [25] = second compound 3.16 µM, first compound 0.0316 µM
# [26] = second compound 3.16 µM, first compound 0.1 µM
# [27] = second compound 3.16 µM, first compound 0.316 µM
# [28] = second compound 3.16 µM, first compound 1 µM
# [29] = second compound 3.16 µM, first compound 3.16 µM
# [30] = second compound 3.16 µM, first compound 10 µM
# [31] = second compound 10 µM, first compound 0.0316 µM
# [32] = second compound 10 µM, first compound 0.1 µM
# [33] = second compound 10 µM, first compound 0.316 µM
# [34] = second compound 10 µM, first compound 1 µM
# [35] = second compound 10 µM, first compound 3.16 µM
# [36] = second compound 10 µM, first compound 10 µM
# 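Also: spheroids exposed to drugs for seven days before reading.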
# 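For viability, T/C in this document: 100% = DMSO vehicle control viability in luminescence.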
compound,measurement,setting,value
C#Cc1c(F)ccc2cc(O)cc(-c3ncc4c(N5CC6CCC(C5)N6)nc(OCC56CCCN5CC(F)C6)nc4c3F)c12 (stereo not given) + COC1C(OC(N)=O)C(O)C(Oc2ccc3c(O)c(NC(=O)c4ccc(O)c(CC=C(C)C)c4)c(=O)oc3c2C)OC1(C)C,IC50,second compound 0.0316 µM,> 10 µM
same,IC50,second compound 0.1 µM,> 10 µM
same,IC50,second compound 0.316 µM,> 10 µM
same,IC50,second compound 1 µM,> 10 µM
same,IC50,second compound 3.16 µM,> 10 µM
same,IC50,second compound 10 µM,> 10 µM
same,"viability, T/C",[1],97.7%
same,"viability, T/C",[2],78.8%
same,"viability, T/C",[3],81.6%
same,"viability, T/C",[4],76.1%
same,"viability, T/C",[5],73.4%
same,"viability, T/C",[6],68%
same,"viability, T/C",[7],98%
same,"viability, T/C",[8],83.9%
same,"viability, T/C",[9],86.5%
same,"viability, T/C",[10],73.3%
same,"viability, T/C",[11],70.2%
same,"viability, T/C",[12],72.1%
same,"viability, T/C",[13],98.7%
same,"viability, T/C",[14],88.4%
same,"viability, T/C",[15],82.9%
same,"viability, T/C",[16],77.5%
same,"viability, T/C",[17],78.9%
same,"viability, T/C",[18],72.1%
same,"viability, T/C",[19],94.8%
same,"viability, T/C",[20],86.7%
same,"viability, T/C",[21],80.1%
same,"viability, T/C",[22],76.8%
same,"viability, T/C",[23],73.2%
same,"viability, T/C",[24],70.7%
same,"viability, T/C",[25],95.1%
same,"viability, T/C",[26],90.2%
same,"viability, T/C",[27],82.3%
same,"viability, T/C",[28],73.2%
same,"viability, T/C",[29],75.9%
same,"viability, T/C",[30],71.7%
same,"viability, T/C",[31],95.2%
same,"viability, T/C",[32],84.1%
same,"viability, T/C",[33],79.6%
same,"viability, T/C",[34],78.7%
same,"viability, T/C",[35],74%
same,"viability, T/C",[36],62.8%
CC1COCCN1c1cc(C2(O)CC3CCC(C2)O3)c2cnn(-c3ccn[nH]3)c2n1 (stereo not given) + COC1C(OC(N)=O)C(O)C(Oc2ccc3c(O)c(NC(=O)c4ccc(O)c(CC=C(C)C)c4)c(=O)oc3c2C)OC1(C)C,IC50,second compound 0.0316 µM,0.227 µM
same,IC50,second compound 0.1 µM,0.242 µM
same,IC50,second compound 0.316 µM,0.314 µM
same,IC50,second compound 1 µM,0.254 µM
same,IC50,second compound 3.16 µM,0.239 µM
same,IC50,second compound 10 µM,0.247 µM
same,"viability, T/C",[1],95.5%
same,"viability, T/C",[2],70.3%
same,"viability, T/C",[3],41.9%
same,"viability, T/C",[4],33.7%
same,"viability, T/C",[5],42.8%
same,"viability, T/C",[6],46.5%
same,"viability, T/C",[7],102%
same,"viability, T/C",[8],81.8%
same,"viability, T/C",[9],39.8%
same,"viability, T/C",[10],33%
same,"viability, T/C",[11],41.6%
same,"viability, T/C",[12],47%
same,"viability, T/C",[13],101%
same,"viability, T/C",[14],83.4%
same,"viability, T/C",[15],50.8%
same,"viability, T/C",[16],36.9%
same,"viability, T/C",[17],40.7%
same,"viability, T/C",[18],48.5%
same,"viability, T/C",[19],96.3%
same,"viability, T/C",[20],73.5%
same,"viability, T/C",[21],45%
same,"viability, T/C",[22],33.5%
same,"viability, T/C",[23],41.7%
same,"viability, T/C",[24],53.1%
same,"viability, T/C",[25],94%
same,"viability, T/C",[26],77.4%
same,"viability, T/C",[27],39.8%
same,"viability, T/C",[28],34.4%
same,"viability, T/C",[29],41.3%
same,"viability, T/C",[30],49.1%
same,"viability, T/C",[31],93.1%
same,"viability, T/C",[32],70.8%
same,"viability, T/C",[33],42.1%
same,"viability, T/C",[34],38.5%
same,"viability, T/C",[35],45.9%
same,"viability, T/C",[36],51%
CCc1cc2c(N3CCc4c(cc(Cn5ccnc5)cc4-c4cn(C)nc4C(F)(F)F)C3=O)cc(C)nc2c(OC)n1 + COC1C(OC(N)=O)C(O)C(Oc2ccc3c(O)c(NC(=O)c4ccc(O)c(CC=C(C)C)c4)c(=O)oc3c2C)OC1(C)C,IC50,second compound 0.0316 µM,> 10 µM
same,IC50,second compound 0.1 µM,> 10 µM
same,IC50,second compound 0.316 µM,> 10 µM
same,IC50,second compound 1 µM,> 10 µM
same,IC50,second compound 3.16 µM,> 10 µM
same,IC50,second compound 10 µM,> 10 µM
same,"viability, T/C",[1],95.6%
same,"viability, T/C",[2],90.6%
same,"viability, T/C",[3],90.5%
same,"viability, T/C",[4],82.8%
same,"viability, T/C",[5],79.2%
same,"viability, T/C",[6],60.7%
same,"viability, T/C",[7],94.2%
same,"viability, T/C",[8],94.3%
same,"viability, T/C",[9],81.5%
same,"viability, T/C",[10],82.4%
same,"viability, T/C",[11],72.3%
same,"viability, T/C",[12],67.4%
same,"viability, T/C",[13],101%
same,"viability, T/C",[14],96.7%
same,"viability, T/C",[15],96.1%
same,"viability, T/C",[16],81.6%
same,"viability, T/C",[17],82.6%
same,"viability, T/C",[18],69.7%
same,"viability, T/C",[19],99%
same,"viability, T/C",[20],96.8%
same,"viability, T/C",[21],85.1%
same,"viability, T/C",[22],84.3%
same,"viability, T/C",[23],68.5%
same,"viability, T/C",[24],72.4%
same,"viability, T/C",[25],95.6%
same,"viability, T/C",[26],98.8%
same,"viability, T/C",[27],87.1%
same,"viability, T/C",[28],83.9%
same,"viability, T/C",[29],74.6%
same,"viability, T/C",[30],66.2%
same,"viability, T/C",[31],102%
same,"viability, T/C",[32],91.4%
same,"viability, T/C",[33],87.5%
same,"viability, T/C",[34],80.6%
same,"viability, T/C",[35],88.9%
same,"viability, T/C",[36],73.4%
COc1cc2cc(C(=O)CCC(=O)O)sc2cc1OC + COC1C(OC(N)=O)C(O)C(Oc2ccc3c(O)c(NC(=O)c4ccc(O)c(CC=C(C)C)c4)c(=O)oc3c2C)OC1(C)C,IC50,second compound 0.0316 µM,> 10 µM
same,IC50,second compound 0.1 µM,> 10 µM
same,IC50,second compound 0.316 µM,> 10 µM
same,IC50,second compound 1 µM,> 10 µM
same,IC50,second compound 3.16 µM,> 10 µM
same,IC50,second compound 10 µM,> 10 µM
same,"viability, T/C",[1],101%
same,"viability, T/C",[2],94.3%
same,"viability, T/C",[3],97.7%
same,"viability, T/C",[4],101%
same,"viability, T/C",[5],102%
same,"viability, T/C",[6],91.9%
same,"viability, T/C",[7],110%
same,"viability, T/C",[8],98%
same,"viability, T/C",[9],96.9%
same,"viability, T/C",[10],97%
same,"viability, T/C",[11],94.9%
same,"viability, T/C",[12],106%
same,"viability, T/C",[13],105%
same,"viability, T/C",[14],88.7%
same,"viability, T/C",[15],98.6%
same,"viability, T/C",[16],105%
same,"viability, T/C",[17],96.9%
same,"viability, T/C",[18],105%
same,"viability, T/C",[19],105%
same,"viability, T/C",[20],97.7%
same,"viability, T/C",[21],104%
same,"viability, T/C",[22],111%
same,"viability, T/C",[23],105%
same,"viability, T/C",[24],101%
same,"viability, T/C",[25],103%
same,"viability, T/C",[26],103%
same,"viability, T/C",[27],107%
same,"viability, T/C",[28],105%
same,"viability, T/C",[29],114%
same,"viability, T/C",[30],96.9%
same,"viability, T/C",[31],102%
same,"viability, T/C",[32],88.7%
same,"viability, T/C",[33],109%
same,"viability, T/C",[34],109%
same,"viability, T/C",[35],112%
same,"viability, T/C",[36],101%
O=C(Nc1ccc(O)c(NS(=O)(=O)c2ccc(F)cc2)c1)c1ccc(-c2ccccc2)cc1 + COC1C(OC(N)=O)C(O)C(Oc2ccc3c(O)c(NC(=O)c4ccc(O)c(CC=C(C)C)c4)c(=O)oc3c2C)OC1(C)C,IC50,second compound 0.0316 µM,> 10 µM
same,IC50,second compound 0.1 µM,> 10 µM
same,IC50,second compound 0.316 µM,> 10 µM
same,IC50,second compound 1 µM,> 10 µM
same,IC50,second compound 3.16 µM,> 10 µM
same,IC50,second compound 10 µM,> 10 µM
same,"viability, T/C",[1],109%
same,"viability, T/C",[2],97.3%
same,"viability, T/C",[3],95.8%
same,"viability, T/C",[4],92.1%
same,"viability, T/C",[5],93%
same,"viability, T/C",[6],101%
same,"viability, T/C",[7],105%
same,"viability, T/C",[8],88.9%
same,"viability, T/C",[9],97.5%
same,"viability, T/C",[10],102%
same,"viability, T/C",[11],95.5%
same,"viability, T/C",[12],104%
same,"viability, T/C",[13],103%
same,"viability, T/C",[14],89.6%
same,"viability, T/C",[15],98.3%
same,"viability, T/C",[16],93.5%
same,"viability, T/C",[17],94.7%
same,"viability, T/C",[18],96.6%
same,"viability, T/C",[19],95.7%
same,"viability, T/C",[20],93.3%
same,"viability, T/C",[21],111%
same,"viability, T/C",[22],105%
same,"viability, T/C",[23],95.5%
same,"viability, T/C",[24],94.3%
same,"viability, T/C",[25],104%
same,"viability, T/C",[26],103%
same,"viability, T/C",[27],95.7%
same,"viability, T/C",[28],105%
same,"viability, T/C",[29],108%
same,"viability, T/C",[30],102%
same,"viability, T/C",[31],95.9%
same,"viability, T/C",[32],98.2%
same,"viability, T/C",[33],120%
same,"viability, T/C",[34],97.6%
same,"viability, T/C",[35],113%
same,"viability, T/C",[36],105%
